This assay addresses T1, viral kinase pUL-97 (Human cytomegalovirus, UniProt P16788).
T1 construct: The pUL-97 gene was cloned into a baculovirus vector; GST (glutathione S-transferase) (N); made in house; host or cells: Sf9 insect cells, baculovirus
Kind of assay: UL97 kinase assay on Immobilon plate. The format is biochemical. The conditions noted are these: inhibition of UL 97 kinase activity, read-out: Activity Class [A, B, C]. As for the experimental part: UL97 Kinase-Assay on Immobilon Plate
The effect of pyrazine derivatives of this invention was tested on the activity of the viral kinase pUL-97. This kinase is derived from human cytomegalovirus (HCMV) (M. Marschall et al., Journal of General Virology, 2001, 82, 1439-1450). The pUL-97 gene was cloned into a baculovirus vector in order to produce GST (glutathione S-transferase) fusion protein. Insect cells (Sf9) were infected and GST-UL-97 purified via glutathione affinity columns according to standard procedures.
The pUL-97 kinase reaction was performed as described (M. Marschall et al., Journal of General Virology, 2001, 82, 1439-1450). Briefly, 10 μl Assay buffer (3 μM ATP, 60 μg/ml myelin basic protein (MBP) as substrate), 1.0 μCi γ-[^33P]ATP and 10 μl Basic buffer (20 mM Tris-HCl pH7.5, 0.5 mM MnCl2, 1 mM DTT (Dithiothreitol)) were given to the test tube before adding various concentrations of pyrazine derivatives. The reaction was started by adding 0.2 μl pUL-97 kinase, purified from infected Sf9-insect cells as described above. The total volume was adjusted with Basic buffer to a final volume of 30 μl. The reaction mix was incubated for 1 hr at 30° C. For negative control, 10 μl 0.1M EDTA (Ethylene Diamine tetraacetate) was added to reaction mix before addition of pUL-97 protein kinase. The reaction was stopped by addition of 10 μl 0.1 M EDTA.
Measuring Incorporation of Radioactivity:
The Immobilon plate (Millipore) was rinsed with 50 μl methanol/well. Following addition of 100 μl 0.1 M EDTA, 20 μl of each kinase reaction mix was added to one well of the Immobilon plate. Each well was washed 4× with 250 μl 0.75% phosphoric acid and 1× with 50 μl methanol. After addition of 50 μl scintillation cocktail (Roth, Germany) per well incorporation of radioactivity was measured using a Betareader (Wallac) and enzymatic activity calculated.

The mark [1] stands for this setting: class by IC50 / % inhibition at 10 μM or 100 μM.
Where [2] appears, read: class by IC50 / % inhibition at 10 or 100 μM.

The structures appear in SMILES notation. Where two headings read alike, the source gives them in different places.

T1 sequence (P16788 whole entry): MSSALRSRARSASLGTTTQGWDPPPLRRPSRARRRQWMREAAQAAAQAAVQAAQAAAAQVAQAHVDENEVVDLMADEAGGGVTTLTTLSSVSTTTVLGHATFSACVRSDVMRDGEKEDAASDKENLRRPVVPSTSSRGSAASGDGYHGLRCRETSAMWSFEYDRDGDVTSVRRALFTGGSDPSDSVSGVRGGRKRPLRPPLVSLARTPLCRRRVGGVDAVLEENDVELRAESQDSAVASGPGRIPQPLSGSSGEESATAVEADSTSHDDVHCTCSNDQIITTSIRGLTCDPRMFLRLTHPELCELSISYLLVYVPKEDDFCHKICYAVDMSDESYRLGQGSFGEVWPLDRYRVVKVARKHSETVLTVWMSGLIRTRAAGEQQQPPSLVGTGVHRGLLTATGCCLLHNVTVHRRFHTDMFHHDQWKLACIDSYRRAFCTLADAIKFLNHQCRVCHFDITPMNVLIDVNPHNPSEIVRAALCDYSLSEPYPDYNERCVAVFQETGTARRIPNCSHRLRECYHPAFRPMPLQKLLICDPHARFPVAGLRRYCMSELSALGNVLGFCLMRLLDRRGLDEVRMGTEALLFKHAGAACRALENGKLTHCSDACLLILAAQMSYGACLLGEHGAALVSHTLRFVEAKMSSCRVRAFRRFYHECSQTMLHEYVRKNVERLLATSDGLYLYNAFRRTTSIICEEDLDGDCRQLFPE

Take `Cc1cccc(N2CCN(c3cncc(-c4ccoc4)n3)CC2)c1C` [compound 346, 4-(2,3-Dimethyl-phenyl)-6′-furan-3-yl-3,4,5,6-tetrahydro-2H-[1,2′]bipyrazinyl]: under setting [1], the IC50 is 10 to 100 µM. With `COc1cccc(-c2cncc(N3CCN(c4ccccc4)CC3)n2)c1` [compound 110, 6′-(3-Methoxy-phenyl)-4-phenyl-3,4,5,6-tetrahydro-2H-[1,2′]bipyrazinyl], under setting [2], the IC50 is 1 to 10 µM. As for `COc1ccc(N2CCN(c3cncc(-c4ccc(C(F)(F)F)cc4)n3)CC2)cc1` [compound 355, 4-(4-Methoxy-phenyl)-6′-(4-trifluoromethyl-phenyl)-3,4,5,6-tetrahydro-2H-[1,2′]bipyrazinyl], the IC50 under setting [1] was in the range of 1 to 10 µM. With `CCOc1ccc(-c2cncc(N3CCN(c4ccc(F)cc4)CC3)n2)cc1` [compound 271, 6′-(4-Ethoxy-phenyl)-4-(4-fluoro-phenyl)-3,4,5,6-tetrahydro-2H-[1,2′]bipyrazinyl], the IC50 under setting [1] lay within 10 to 100 µM. Still for that read-out and setting: the same measure for `CC(=O)c1ccccc1-c1cncc(N2CCN(c3cccc(Cl)c3)CC2)n1` [compound 236, 1-{2-[4-(3-Chloro-phenyl)-3,4,5,6-tetrahydro-2H-[1,2′]bipyrazinyl-6′-yl]-phenyl}-ethanone]: 10 to 100 µM.

Take `CC(=O)c1cccc(-c2cncc(N3CCN(c4cccc(Cl)c4)CC3)n2)c1` [compound 101, 1-{3-[4-(3-Chloro-phenyl)-3,4,5,6-tetrahydro-2H-[1,2′]bipyrazinyl-6′-yl]-phenyl}-ethanone]: the IC50 under setting [2] lay within 1 to 10 µM.

Take `Cc1ccc(N2CCN(c3cncc(-c4csc5ccccc45)n3)CC2)cc1` [compound 231, 6′-Benzo[b]thiophen-3-yl-4-p-tolyl-3,4,5,6-tetrahydro-2H-[1,2′]bipyrazinyl]: the IC50 under setting [1] lay in the range of 10 to 100 µM. Consider `CCOc1ccccc1-c1cncc(N2CCN(c3ccc(C(C)=O)cc3)CC2)n1` [compound 212, 1-{4-[6′-(2-Ethoxy-phenyl)-2,3,5,6-tetrahydro-[1,2′]bipyrazinyl-4-yl]-phenyl}-ethanone], for which, under setting [1], the IC50 was 10 to 100 µM. On the same count and under the same terms, to `CN(C)c1ccc(-c2cncc(N3CCN(c4ccc(F)cc4F)CC3)n2)cc1` [compound 208] belongs 1 to 10 µM. Take `OCc1ccc(-c2cncc(N3CCN(c4ccncc4)CC3)n2)cc1` [compound 258, [4-(4-Pyridin-4-yl-3,4,5,6-tetrahydro-2H-[1,2′]bipyrazinyl-6′-yl)-phenyl]-methanol]: the IC50 under setting [1] lay in the range of 1 to 10 µM. In the case of `COc1cccc(N2CCN(c3cncc(-c4ccc5ccccc5c4)n3)CC2)c1` [compound 322, 4-(3-Methoxy-phenyl)-6′-naphthalen-2-yl-3,4,5,6-tetrahydro-2H-[1,2′]bipyrazinyl], the IC50 under setting [1] was 1 to 10 µM. `Cc1nc(C)c(N2CCN(c3ccncc3)CC2)nc1-c1cc2ccccc2s1` [compound 373, 6′-Benzo[b]thiophen-2-yl-3′,5′-dimethyl-4-pyridin-4-yl-3,4,5,6-tetrahydro-2H-[1,2′]bipyrazinyl]: the IC50 under setting [1] is 10 to 100 µM. `Oc1ccc(-c2cncc(N3CCN(c4ccncc4)CC3)n2)cc1` [compound 57, 4-(4-Pyridin-4-yl-3,4,5,6-tetrahydro-2H-[1,2′]bipyrazinyl-6′-yl)-phenol]: the IC50 under setting [2] was in the range of 10 to 100 µM. `Fc1ccc(-c2cncc(N3CCN(c4ccccc4F)CC3)n2)cc1` [compound 114, 4-(2-Fluoro-phenyl)-6′-(4-fluoro-phenyl)-3,4,5,6-tetrahydro-2H-[1,2′]bipyrazinyl]: the IC50 under setting [2] fell in the range of 1 to 10 µM. Consider `CSc1ccccc1-c1cncc(N2CCN(c3ccccn3)CC2)n1` [compound 342, 6′-(2-Methylsulfanyl-phenyl)-4-pyridin-2-yl-3,4,5,6-tetrahydro-2H-[1,2′]bipyrazinyl], for which the IC50 under setting [1] lay within 10 to 100 µM. In the case of `Cc1ccc(-c2cncc(N3CCN(c4cccc(Cl)c4)CC3)n2)cc1` [compound 237, 4-(3-Chloro-phenyl)-6′-p-tolyl-3,4,5,6-tetrahydro-2H-[1,2′]bipyrazinyl], the IC50 under setting [1] is 10 to 100 µM. For the molecule `c1ccc(N2CCN(c3cncc(-c4csc5ccccc45)n3)CC2)cc1` [compound 247, 6′-Benzo[b]thiophen-3-yl-4-phenyl-3,4,5,6-tetrahydro-2H-[1,2′]bipyrazinyl], under setting [1], the IC50 was 1 to 10 µM.

On to `CSc1ccccc1-c1cncc(N2CCN(c3ccncc3)CC2)n1` [compound 166, 6′-(2-Methylsulfanyl-phenyl)-4-pyridin-4-yl-3,4,5,6-tetrahydro-2H-[1,2′]bipyrazinyl], for which the IC50 under setting [2] was in the range of 10 to 100 µM.

As for `CC(C)(C)c1ccc(-c2cncc(N3CCN(c4ccccc4)CC3)n2)cc1` [compound 95, 6′-(4-tert-Butyl-phenyl)-4-phenyl-3,4,5,6-tetrahydro-2H-[1,2′]bipyrazinyl], under setting [2], the IC50 fell in the range of 10 to 100 µM. As to `COc1ccc(N2CCN(c3cncc(-c4ccc(C)cc4)n3)CC2)cc1OC` [compound 224, 4-(3,4-Dimethoxy-phenyl)-6′-p-tolyl-3,4,5,6-tetrahydro-2H-[1,2′]bipyrazinyl], the IC50 under setting [1] lay in the range of 1 to 10 µM. As for `Cc1ccc(N2CCN(c3cncc(-c4cccc(C)c4)n3)CC2)cc1` [compound 228, 6′-m-Tolyl-4-p-tolyl-3,4,5,6-tetrahydro-2H-[1,2′]bipyrazinyl], the IC50 under setting [1] was 10 to 100 µM. Take `CCNc1cncc(-c2ccc(C(N)=O)cc2)n1` [compound 40, 4-(6-Ethylamino-pyrazin-2-yl)-benzamide]: the IC50 under setting [2] lay within 1 to 10 µM. Take `CC(=O)c1ccc(N2CCN(c3cncc(-c4ccc(F)cc4)n3)CC2)cc1` [compound 276, 1-{4-[6′-(4-Fluoro-phenyl)-2,3,5,6-tetrahydro-[1,2′]bipyrazinyl-4-yl]-phenyl}-ethanone]: under setting [1], the IC50 was 1 to 10 µM.

For `CCOc1ccccc1-c1cncc(N2CCN(c3ccc(C)cc3)CC2)n1` [compound 175, 6′-(2-Ethoxy-phenyl)-4-p-tolyl-3,4,5,6-tetrahydro-2H-[1,2′]bipyrazinyl], the IC50 under setting [2] fell in the range of 10 to 100 µM. Regarding `Clc1cccc(N2CCN(c3cncc(-c4csc5ccccc45)n3)CC2)c1` [compound 239, 6′-Benzo[b]thiophen-3-yl-4-(3-chloro-phenyl)-3,4,5,6-tetrahydro-2H-[1,2′]bipyrazinyl], the IC50 under setting [1] fell in the range of 10 to 100 µM. As for `CSc1ccc(-c2cncc(N3CCN(c4ccc(Cl)c(Cl)c4)CC3)n2)cc1` [compound 372, 4-(3,4-Dichloro-phenyl)-6′-(4-methylsulfanyl-phenyl)-3,4,5,6-tetrahydro-2H-[1,2′]bipyrazinyl], the IC50 under setting [1] fell in the range of 10 to 100 µM. As for `c1ccc(Oc2ccc(-c3cncc(N4CCN(c5ccccc5)CC4)n3)cc2)cc1` [compound 189, 6′-(4-Phenoxy-phenyl)-4-phenyl-3,4,5,6-tetrahydro-2H-[1,2′]bipyrazinyl], the IC50 under setting [2] lay within 10 to 100 µM. In the case of `OCC1CCCN1c1cncc(-c2cc3ccccc3o2)n1` (centres unmarked) [compound 24, [1-(6-Benzofuran-2-yl-pyrazin-2-yl)-pyrrolidin-2-yl]-methanol], the IC50 under setting [2] fell in the range of 1 to 10 µM.

On to `COc1ccc(N2CCN(c3cncc(-c4cccc(C#N)c4)n3)CC2)cc1OC` [compound 173, 3-[4-(3,4-Dimethoxy-phenyl)-3,4,5,6-tetrahydro-2H-[1,2′]bipyrazinyl-6′-yl]-benzonitrile], for which, under setting [2], the IC50 is 10 to 100 µM. In the case of `CC(=O)c1ccc(N2CCN(c3cncc(-c4ccccc4C(C)=O)n3)CC2)cc1` [compound 146, 1-{2-[4-(4-Acetyl-phenyl)-3,4,5,6-tetrahydro-2H-[1,2′]bipyrazinyl-6′-yl]-phenyl}-ethanone], the IC50 under setting [2] was 10 to 100 µM. In the case of `CC(=O)c1ccc(-c2cncc(N3CCN(c4ccncc4)CC3)n2)cc1` [compound 133, 1-[4-(4-Pyridin-4-yl-3,4,5,6-tetrahydro-2H-[1,2′]bipyrazinyl-6′-yl)-phenyl]-ethanone], the IC50 under setting [2] lay within 1 to 10 µM. On the same count and under the same terms, to `COc1ccc(-c2cncc(N3CCN(c4cccc5[nH]ccc45)CC3)n2)cc1` [compound 38, 4-(1H-Indol-4-yl)-6′-(4-methoxy-phenyl)-3,4,5,6-tetrahydro-2H-[1,2′]bipyrazinyl] belongs 1 to 10 µM; to `Fc1ccc(-c2cncc(N3CCN(c4ccc(F)cc4)CC3)n2)cc1` [compound 138, 4,6′-Bis-(4-fluoro-phenyl)-3,4,5,6-tetrahydro-2H-[1,2′]bipyrazinyl], 10 to 100 µM. As for `CCOc1ccc(-c2cncc(N3CCN(c4ccc(F)cc4F)CC3)n2)cc1` [compound 203, 4-(2,4-Difluoro-phenyl)-6′-(4-ethoxy-phenyl)-3,4,5,6-tetrahydro-2H-[1,2′]bipyrazinyl], the IC50 under setting [1] is 10 to 100 µM. Regarding `Fc1cccc(-c2cncc(N3CCN(c4ccc(F)cc4F)CC3)n2)c1` [compound 211, 4-(2,4-Difluoro-phenyl)-6′-(3-fluoro-phenyl)-3,4,5,6-tetrahydro-2H-[1,2′]bipyrazinyl], under setting [1], the IC50 lay in the range of 10 to 100 µM.

The values above are taken from US20080194574A1, “Pyrazine Derivatives As Effective Compounds Against Infectious Diseases” (AXXIMA PHARMACEUTICALS AG, priority 2003, published 2008).
